Results on eleven molecules are retold here after ChEMBL document CHEMBL5625190, “Novel fused imidazotriazines acting as promising top. II inhibitors and apoptotic inducers with greater selectivity against head and neck tumors: Design, synthesis, and biological assessments” (Eur J Med Chem, 2023).

Data set [1] deals with HNO 97 cell line. Nature of the data set: Growth inhibition of human HNO 97 cell line assessed as reduction in cell viability at 100 ug/ml by SRB colorimetric assay relative to control. Type of data set: functional. The conditions noted are these: read-out: GI. For orientation: In SRB staining, fixed cells bind dye roughly in proportion to their protein.
The test system of data set [2] is MG-63. Nature of the data set: Growth inhibition of human MG-63 cells assessed as reduction in cell viability at 100 ug/ml by SRB colorimetric assay relative to control. Type of data set: functional. The conditions noted are these: read-out: GI.
Data set [3] deals with Huh-7. Nature of the data set: Growth inhibition of human Huh-7 cells assessed as reduction in cell viability at 100 ug/ml by SRB colorimetric assay relative to control. Type of data set: functional. The note with it: read-out: GI.
In data set [4] the test system is A-375. Put plainly: Growth inhibition of human A-375 cells assessed as reduction in cell viability at 100 ug/ml by SRB colorimetric assay relative to control. Type of data set: functional. The note with it: read-out: GI.
Data set [5] has as its system BT-474. Nature of the data set: Growth inhibition of human BT-474 cells assessed as reduction in cell viability at 100 ug/ml by SRB colorimetric assay relative to control. Type of data set: functional. The note with it: read-out: GI.
Data set [6] has as its system PC-3. Put plainly: Growth inhibition of human PC-3 cells assessed as reduction in cell viability at 100 ug/ml by SRB colorimetric assay relative to control. Type of data set: functional. The conditions noted are these: read-out: GI.
Data set [7] has as its system Caco-2. Nature of the data set: Growth inhibition of human Caco-2 cells assessed as reduction in cell viability at 100 ug/ml by SRB colorimetric assay relative to control. Format: functional. The note with it: read-out: GI.
In data set [8] the test system is HCT-116. Nature of the data set: Growth inhibition of human HCT-116 cells assessed as reduction in cell viability at 100 ug/ml by SRB colorimetric assay relative to control. Type of data set: functional. The note with it: read-out: GI.
The test system of data set [9] is MDA-MB-231. Put plainly: Growth inhibition of human MDA-MB-231 cells assessed as reduction in cell viability at 100 ug/ml by SRB colorimetric assay relative to control. Type of data set: functional. The note with it: read-out: GI.
Data set [10] has as its system NCI-H460. Nature of the data set: Growth inhibition of human NCI-H460 cells assessed as reduction in cell viability at 100 ug/ml by SRB colorimetric assay relative to control. Format: functional. The note with it: read-out: GI.
Data set [11] is described as follows: Growth inhibition of human Oral epithelial cell assessed as reduction in cell viability at 100 ug/ml by SRB colorimetric assay relative to control. Format: toxicity, cell-based. The note with it: oral epithelial cells, at 100 µg/mL, read-out: GI.
Data set [12] relates to MCF7. Put plainly: Growth inhibition of human MCF7 cells assessed as reduction in cell viability at 100 ug/ml by SRB colorimetric assay relative to control. Format: functional. The note with it: read-out: GI.
Data set [13] deals with A549. Nature of the data set: Growth inhibition of human A549 cells assessed as reduction in cell viability at 100 ug/ml by SRB colorimetric assay relative to control. Type of data set: functional. The note with it: read-out: GI.
For data set [14], the system named is HepG2. Put plainly: Growth inhibition of human HepG2 cells assessed as reduction in cell viability at 100 ug/ml by SRB colorimetric assay relative to control. The note with it: read-out: GI. Format: functional.

Consider `NC1=NC(c2cccnc2)n2c(nc3ccccc32)N1` (centres undefined), for which the inhibition of growth at 100 µg/mL was 64.8% in [1]; 42.4% in [2]; 57.2% in data set [3]; 56% in data set [4]; 0.93% in [5]; 52.2% in data set [6]. Besides, the inhibition of growth at 100 µg/mL in [7] amounted to 53.7%; in data set [8] it was 65.2%; in data set [9], 30.5%; in data set [10], 58.1%; in data set [12], 60.7%; in data set [13], 55.6%. Besides, the inhibition of growth at 100 µg/mL in data set [14] was 67.8%. The inhibition at 100 ug/ml in data set [11] was found to be 52.7%.
Consider `NC1=Nc2nc3ccccc3n2C(c2ccc3ccccc3c2)N1` (centres undefined), for which the inhibition of growth at 100 µg/mL came to 57.3% in [1]; 58.6% in data set [2]; 54.6% in data set [3]; 44.1% in data set [4]; 55.3% in data set [5]; 54.8% in [6]. Besides, the inhibition of growth at 100 µg/mL in [7] was determined as 61%; in [8], 50.2%; in data set [9] it was 66.6%; in [10], 65%; in data set [12] it was 48.8%; in [13], 56.7%. For the same molecule, in [14], the inhibition of growth at 100 µg/mL came to 45%. Also, the inhibition at 100 ug/ml in data set [11] turned out to be 55.7%.
Turning to `NC1=Nc2nc3ccccc3n2C(c2cccc3ccccc23)N1` (centres undefined), the inhibition of growth at 100 µg/mL in [1] is 61.1%; in data set [2], 58%; in data set [3], 58.7%; in data set [4], 52.8%; in data set [5] it was 61.4%; in data set [6], 59%. For the same molecule, the inhibition of growth at 100 µg/mL in [7] is 59.9%; in [8], 55.7%; in data set [9], 76.2%; in data set [10], 61.1%; in data set [12], 53.7%; in data set [13], 54.4%. Besides, the inhibition of growth at 100 µg/mL in data set [14] is 59%. In addition, the inhibition at 100 ug/ml in data set [11] came to 45.9%.
For the molecule `NC1=Nc2nc3ccccc3n2C(c2ccc([N+](=O)[O-])cc2)N1` (centres undefined), the inhibition of growth at 100 µg/mL in data set [1] worked out at 70.4%; in data set [2], 53.4%; in data set [3], 56.9%; in [4], 58.6%; in data set [5], 60.2%; in data set [6], 61.2%. Moreover, the inhibition of growth at 100 µg/mL in data set [7] turned out to be 65.9%; in data set [8], 61.3%; in [9] it was 74.6%; in data set [10], 74.7%; in data set [12] it was 61.2%; in data set [13] it was 65.6%. The inhibition of growth at 100 µg/mL in [14] was determined as 74.3%. Moreover, in [11], the inhibition at 100 ug/ml is 40.3%.
Regarding `COc1cc(C2NC(N)=Nc3nc4ccccc4n32)cc(OC)c1OC` (centres undefined), the inhibition of growth at 100 µg/mL is 82.2% in [1]; 59.4% in [2]; 70.1% in [3]; 61.8% in [4]; 69.9% in data set [5]; 60% in [6]. For the same molecule, the inhibition of growth at 100 µg/mL in data set [7] is 69%; in [8], 63.6%; in data set [9], 79.4%; in [10] it was 69.6%; in data set [12] it was 72%; in data set [13], 67.5%. Moreover, the inhibition of growth at 100 µg/mL in data set [14] is 73.9%. In data set [11], the inhibition at 100 ug/ml was 32.7%.
For `Cc1ccc(C2NC(N)=Nc3nc4ccccc4n32)o1` (centres undefined), the inhibition of growth at 100 µg/mL in [1] was found to be 57.5%; in data set [2] it was 50.6%; in data set [3], 50%; in [4], 58.5%; in [5], 13.2%; in data set [6], 55.2%. Besides, the inhibition of growth at 100 µg/mL in [7] was found to be 56.2%; in data set [8], 60.9%; in [9], 27.4%; in data set [10], 61.6%; in data set [12] it was 51.6%; in data set [13], 56.2%. Besides, the inhibition of growth at 100 µg/mL in data set [14] came to 61.5%. The inhibition at 100 ug/ml in data set [11] turned out to be 59.7%.
In the case of `COc1cc(C2NC(N)=Nc3nc4ccccc4n32)ccc1OCc1ccccc1` (centres undefined), the inhibition of growth at 100 µg/mL came to 63.2% in data set [1]; 13.1% in data set [2]; 26.9% in data set [3]; 45.1% in data set [4]; 1% in data set [5]; 44.6% in [6]. Also, the inhibition of growth at 100 µg/mL in data set [7] was 40.1%; in data set [8], 39%; in data set [9], 51.7%; in data set [10], 30.4%; in data set [12] it was 48.9%; in data set [13], 30.5%. Besides, in data set [14], the inhibition of growth at 100 µg/mL was found to be 41.3%. The inhibition at 100 ug/ml in data set [11] came out at 21%.
For the molecule `COc1ccc(OC)c(C2N=C(N)Nc3nc4ccccc4n32)c1` (centres undefined), the inhibition of growth at 100 µg/mL in data set [1] worked out at 76.6%; in [2], 46.8%; in data set [3] it was 54.8%; in [4] it was 52.1%; in data set [5], 46.3%; in [6] it was 46%. Besides, the inhibition of growth at 100 µg/mL in data set [7] is 52.5%; in data set [8] it was 49.3%; in [9], 64.9%; in data set [10], 63.2%; in [12] it was 54.4%; in data set [13], 54.9%. In addition, the inhibition of growth at 100 µg/mL in data set [14] is 63.6%. Moreover, the inhibition at 100 ug/ml in data set [11] turned out to be 10.2%.
As to `NC1=Nc2nc3ccccc3n2C(c2cccs2)N1` (centres undefined), the inhibition of growth at 100 µg/mL in [1] is 71.8%; in [2], 49.9%; in data set [3], 65%; in [4], 56.4%; in data set [5] it was 5.76%; in [6], 48%. Also, the inhibition of growth at 100 µg/mL in data set [7] amounted to 62.9%; in data set [8] it was 64.4%; in data set [9], 38.7%; in data set [10], 58.8%; in [12], 56.2%; in [13], 61.4%. Moreover, the inhibition of growth at 100 µg/mL in data set [14] stood at 64.9%. For the same molecule, the inhibition at 100 ug/ml in [11] came to 59.6%.
`NC1=Nc2nc3ccccc3n2C(c2c[nH]c3ccccc23)N1` (centres undefined): the inhibition of growth at 100 µg/mL in [1] turned out to be 75.3%; in data set [2] it was 56.2%; in data set [3] it was 65.3%; in [4] it was 69.2%; in data set [5], 34.4%; in [6], 54.2%. Moreover, the inhibition of growth at 100 µg/mL in data set [7] came out at 61.7%; in [8], 64.3%; in [9], 34.3%; in data set [10], 63.5%; in data set [12] it was 56.5%; in [13], 58.8%. In addition, in data set [14], the inhibition of growth at 100 µg/mL is 69.2%. For the same molecule, the inhibition at 100 ug/ml in data set [11] is 51.3%.
On to `CN(C)c1ccc(C2NC(N)=Nc3nc4ccccc4n32)cc1` (centres undefined), for which the inhibition of growth at 100 µg/mL in data set [1] is 80.8%; in data set [2] it was 58%; in data set [3], 70%; in data set [4], 68.5%; in data set [5] it was 60.1%; in data set [6], 57.5%. Besides, the inhibition of growth at 100 µg/mL in [7] turned out to be 64%; in data set [8], 64.1%; in data set [9], 61%; in data set [10] it was 70.9%; in data set [12] it was 63.2%; in data set [13], 67.7%. Also, in data set [14], the inhibition of growth at 100 µg/mL was 78.8%. In data set [11], the inhibition at 100 ug/ml was 14.2%.
